Laboratory results taken from patent US4008323A, “Method of reducing cholesterol using certain aromatic keto acids” (Pierre Fabre S.A., priority 1974, dated 1977).
Read-outs that look alike come from different tables or passages of the source. Values belong to the molecule of their own block, whether it stands above or below them.

Legend:
Solubility properties = format: physicochemical; settings: for Solubility in ethyl alcohol: ethyl alcohol / ethanol / alcohol; for Solubility in water: in words; for Solubility in alcohol of 95° GL: alcohol / ethanol of 95° GL
carrageenin edema = assay: Carrageenin edema test in rats (antiinflammatory); format: in vivo; settings: for change in vivo at 300 mg/kg / change in vivo at 200 mg/kg / change in vivo at 75 mg/kg: Rattus norvegicus; for change in vivo at 300 mg/kg: 300 mg/kg oral; for change in vivo at 200 mg/kg: 200 mg/kg oral; for % var. / action (variation of paw volume increase vs controls) / change in vivo at 75 mg/kg: 75 mg/kg oral
Protocol: The antiinflammatory properties were shown by the carrageenin edema test in rats, the products having been administered orally 1 hour before the intrapodal injection of 0.05 ml of a 2% suspension of carrageenin; the volume of the rat's paw was measured by plethysmoscopy 3, 4 and 6 hours afterwards.
The experiment concerned for each lot […]; one lot of animals receiving only the vehicle (2 ml/100 g of Tween + water) which served for the administration of the products, constituted the control lot. The following table sets forth the results obtained: […]

[1] = system: writhings induced by acetic acid; assay: Writhing test, acetic acid (analgetic); format: in vivo, male mouse; settings: 200 mg/kg by mouth, t + 60 to t + 70 min
Protocol: The administration of the compounds is effected by mouth at the time t. […] The determination of the writhings is effected from t + 60 min. to t + 70 min. The vehicle used for the administration of the products is a 5% solution of Tween 80 in 0.9% NaCl which will serve as control.

[2] = Acute toxicity in mice, oral LD50 (method of Miller & Tainter); settings: mouse, in vivo, mortality determined 48 hours after administration
Protocol: The chemical compounds previously described were submitted to toxicity tests. It was determined in mice by oral administration and was calculated in accordance with the method of MILLER & TAINTER. It is generally low and greater than 1000 mg/kg.

[3] = system: writhings induced by phenylbenzoquinone; assay: Writhing test, phenylbenzoquinone (analgetic); format: in vivo, mice; settings: 200 mg/kg oral, t + 35 to t + 40 min
Protocol: The analgetic properties of certain compounds were shown in mice by the "writhing test" method, that is to say with reference to the writhings induced by phenylbenzoquinone. The administration of the product is effected orally at time t; it is followed by the intraperitoneal injection of 0.2% phenylbenzoquinone at t + 30 min. The determination of the writhings is effected from t + 35 min. to t + 40 min. One lot of animals receiving only the vehicle (5% Tween 80 in 0.9% NaCl) serves as control.

[4] = sodium salt, water, read-out: Solubility in form of sodium salt
[5] = + 3 hrs, read-out: % increase in volume of the paw, mean (m)
[6] = + 4 hrs, read-out: % increase in volume of the paw, mean (m)
[7] = + 6 hrs, read-out: % increase in volume of the paw, mean (m)
[8] = + 6 hrs, read-out: Action (variation of paw volume increase vs controls)
[9] = read-out: % mean variation of the volume of the paw at 3, 4 and 6 hrs
[10] = + 3 hrs, read-out: Action (variation of paw volume increase vs controls)
[11] = + 4 hrs, read-out: Action (variation of paw volume increase vs controls)
[12] = 3 hrs, read-out: % increase in volume of the paw, mean (m)
[13] = 4 hrs, read-out: % increase in volume of the paw, mean (m)
[14] = 6 hrs, read-out: % increase in volume of the paw, mean (m)

SMILES: C=C(CC(=O)c1ccc(-c2ccc(Br)cc2)cc1)C(=O)O [F 1378]
change in vivo at 300 mg/kg (carrageenin edema; [5]): 45.4%
change in vivo at 300 mg/kg (carrageenin edema; [10]): -26%
change in vivo at 300 mg/kg (carrageenin edema; [6]): 47.9%
change in vivo at 300 mg/kg (carrageenin edema; [11]): -21%
change in vivo at 300 mg/kg (carrageenin edema; [7]): 52.4%
change in vivo at 300 mg/kg (carrageenin edema; [8]): -8%
change in vivo at 300 mg/kg (carrageenin edema; [9]): -18.3%

SMILES: C=C(CC(=O)c1ccc(Oc2ccccc2)cc1)C(=O)O [F 1380]
change in vivo at 200 mg/kg (carrageenin edema; [5]): 50.3%
change in vivo at 200 mg/kg (carrageenin edema; [10]): -18%
change in vivo at 200 mg/kg (carrageenin edema; [6]): 52.8%
change in vivo at 200 mg/kg (carrageenin edema; [11]): -12%
change in vivo at 200 mg/kg (carrageenin edema; [7]): 55.6%
change in vivo at 200 mg/kg (carrageenin edema; [8]): -3%
change in vivo at 200 mg/kg (carrageenin edema; [9]): -11%

SMILES: C=C(CC(=O)c1ccc(-c2ccccc2Cl)cc1)C(=O)OC [F 1440, 2-methylene 4-oxo 4-(4'-o-chlorophenylphenyl) methyl butyrate]
Solubility in N-methyl pyrrolidone (Solubility properties): 60%
Solubility in NN-dimethyl acetamide (Solubility properties): 60%
Solubility in water (Solubility properties; water): insoluble
LD50 at 48 h [2]: > 1000 mg/kg
% var. / action (variation of paw volume increase vs controls) (carrageenin edema; 3 hrs): -22%
% var. / action (variation of paw volume increase vs controls) (carrageenin edema; 4 hrs): -15%
% var. / action (variation of paw volume increase vs controls) (carrageenin edema; 6 hrs): -9%
change in vivo at 75 mg/kg (carrageenin edema; [12]): 47%
change in vivo at 75 mg/kg (carrageenin edema; [13]): 50.5%
change in vivo at 75 mg/kg (carrageenin edema; [14]): 51%
change in vivo at 75 mg/kg (carrageenin edema; [9]): -15%

SMILES: CC(=CC(=O)c1ccc(-c2ccccc2Cl)cc1)C(=O)Nc1cccc(C(F)(F)F)c1 [F 1441]
Solubility in ethyl alcohol (Solubility properties): 6%
Solubility in water (Solubility properties; water): insoluble

SMILES: CC(=CC(=O)c1ccccc1)C(=O)Nc1cccc(C(F)(F)F)c1 [F 1442, 2-methyl 4-oxo 4-phenyl N(m-trifluoromethylphenyl) 2-butenamide]
Solubility in N-methyl pyrrolidone (Solubility properties): 40%
Solubility in alcohol of 95° GL (Solubility properties): 30%
Solubility in NN-dimethyl acetamide (Solubility properties): 40%
Solubility in water (Solubility properties; water): insoluble
LD50 at 48 h [2]: > 1000 mg/kg
% var. / action (variation of paw volume increase vs controls) (carrageenin edema; 3 hrs): -16%
% var. / action (variation of paw volume increase vs controls) (carrageenin edema; 4 hrs): -14%
% var. / action (variation of paw volume increase vs controls) (carrageenin edema; 6 hrs): -11%
change in vivo at 75 mg/kg (carrageenin edema; [12]): 50%
change in vivo at 75 mg/kg (carrageenin edema; [13]): 51%
change in vivo at 75 mg/kg (carrageenin edema; [14]): 49%
change in vivo at 75 mg/kg (carrageenin edema; [9]): -13%

SMILES: CC(=CC(=O)c1ccccc1)C(=O)N1CCOCC1 [F 1443, N-(4-phenyl 4-oxo 2-methyl 2-butenoyl)morpholine]
Solubility in N-methyl pyrrolidone (Solubility properties): 5%
Solubility in alcohol of 95° GL (Solubility properties): 1.5%
Solubility in NN-dimethyl acetamide (Solubility properties): 5%
Solubility in water (Solubility properties; water): insoluble

SMILES: CC(=CC(=O)c1ccc(-c2ccccc2)cc1)C(=O)O [F 1448, 2-methyl 4-oxo 4-(4'-phenylphenyl) 2-butenoic acid]
Solubility in N-methyl pyrrolidone (Solubility properties): 20%
Solubility in NN-dimethyl acetamide (Solubility properties): 25%
Solubility in ethyl alcohol (Solubility properties): 1%
Solubility in water (Solubility properties; water): insoluble

SMILES: C=C(CC(=O)c1ccc2c(c1)CCCC2)C(=O)O [F 1495, 2-methylene 4-oxo 4-(1'-2'-3'-4'-tetrahydronaphthalene) butyric acid]
Solubility in N-methyl pyrrolidone (Solubility properties): 50%
Solubility in alcohol of 95° GL (Solubility properties): 8%
Solubility in NN-dimethyl acetamide (Solubility properties): 50%
Solubility in water (Solubility properties; water): insoluble

SMILES: C=C(CC(=O)c1ccc(-c2ccccc2Cl)cc1)C(=O)O [F 1496, 2-methylene 4-oxo 4-(4'-orthochlorophenylphenyl) arginine butyrate]
Solubility in water (Solubility properties; water): soluble

SMILES: CC(=O)Oc1ccccc1C(=O)O [acetylsalicyclic acid, reference compound]
% Decrease (of writhings) [1]: 36,6%
Mean No. of Writhings [1]: 24,7

Second part, led by results:

Solubility in NN dimethyl formamide (Solubility properties; NN dimethyl formamide): 50%
Solubility in acetone (Solubility properties): 10%
Solubility in chloroform (Solubility properties; chloroform): 5%
Solubility in ethyl alcohol (Solubility properties): 3%
Solubility in propylene glycol (Solubility properties): 1%
solubility (Solubility properties; [4]): 100000 µg/mL
Solubility in water (Solubility properties; water): insoluble
SMILES: C=C(CC(=O)c1ccc(Oc2ccccc2)cc1)C(=O)O [Example 4, 2-methylene 4-oxo 4-(paraphenoxyphenyl) butyric acid]

Solubility in N-methyl pyrrolidone (Solubility properties): 25%
Solubility in ethyl alcohol (Solubility properties): 1%
Solubility in water (Solubility properties; water): insoluble
SMILES: C=C(CC(=O)c1ccc(-c2ccc(Br)cc2)cc1)C(=O)O [Example 5, 2-methylene 4-oxo 4-(phenyl-4'-parabromophenyl) butyric acid]

Solubility in acetone (Solubility properties): 6%
Solubility in NN-dimethyl acetamide (Solubility properties): 10%
Solubility in dimethyl sulfoxide (Solubility properties; dimethyl sulfoxide): 25%
Solubility in ethyl alcohol (Solubility properties): 3%
solubility (Solubility properties; [4]): 10000 µg/mL
Solubility in water (Solubility properties; water): insoluble
SMILES: C=C(CC(=O)c1ccccc1)C(=O)O [F 1350, 2-methylene 4-oxo 4-phenyl butyric acid]
change in vivo at 300 mg/kg (carrageenin edema; [5]): 34.3%
change in vivo at 300 mg/kg (carrageenin edema; [6]): 39.7%
change in vivo at 300 mg/kg (carrageenin edema; [7]): 46.1%
change in vivo at 300 mg/kg (carrageenin edema; [8]): 0%
change in vivo at 300 mg/kg (carrageenin edema; [9]): -17%
% Decrease (of writhings) [1]: 42,3%
Mean No. of Writhings [1]: 25,7

Solubility in ethyl alcohol (Solubility properties): 5%
Solubility in propylene glycol (Solubility properties): 3%
solubility (Solubility properties; [4]): 10000 µg/mL
SMILES: CC(=CC(=O)c1ccccc1)C(=O)O [F 1351, 2-methyl 4-oxo 4-phenyl 2-butenoic acid]
change in vivo at 300 mg/kg (carrageenin edema; [5]): 29.7%
change in vivo at 300 mg/kg (carrageenin edema; [10]): -41%
change in vivo at 300 mg/kg (carrageenin edema; [6]): 33.8%
change in vivo at 300 mg/kg (carrageenin edema; [11]): -32%
change in vivo at 300 mg/kg (carrageenin edema; [7]): 40.6%
change in vivo at 300 mg/kg (carrageenin edema; [8]): -12%
% Decrease (of writhings) [1]: 48,2%
Mean No. of Writhings [1]: 28,0

Solubility in N-methyl pyrrolidone (Solubility properties): 25%
Solubility in ethyl alcohol (Solubility properties): 3%
solubility (Solubility properties; [4]): 10000 µg/mL
Solubility in water (Solubility properties; water): insoluble
SMILES: C=C(CC(=O)c1ccc(Cl)cc1)C(=O)O [F 1352, 2-methylene 4-oxo 4-(parachlorophenyl) butyric acid]
change in vivo at 300 mg/kg (carrageenin edema; [5]): 35.8%
change in vivo at 300 mg/kg (carrageenin edema; [10]): -28%
change in vivo at 300 mg/kg (carrageenin edema; [6]): 37.9%
change in vivo at 300 mg/kg (carrageenin edema; [11]): -24%
change in vivo at 300 mg/kg (carrageenin edema; [7]): 37.3%
change in vivo at 300 mg/kg (carrageenin edema; [8]): -19%
change in vivo at 300 mg/kg (carrageenin edema; [9]): -23.6%
% Decrease (of writhings) [1]: 40,3%
Mean No. of Writhings [1]: 26,6

Solubility in NN-dimethyl acetamide (Solubility properties): 20%
Solubility in ethyl alcohol (Solubility properties): 3%
Solubility in propylene glycol (Solubility properties): 1%
solubility (Solubility properties; water with sodium bicarbonate, water + sodium bicarbonate, read-out: Solubility in water by addition of sodium bicarbonate): 10000 µg/mL
Solubility in water (Solubility properties; water): insoluble
SMILES: C=C(CC(=O)c1ccc(C2CCCCC2)cc1)C(=O)O [F 1353, 2-methylene 4-oxo 4-(paracyclohexylphenyl) butyric acid]

Solubility in N-methyl pyrrolidone (Solubility properties): 30%
Solubility in absolute alcohol (Solubility properties; absolute alcohol): 1%
Solubility in NN-dimethyl acetamide (Solubility properties): 30%
Solubility in water (Solubility properties; water): insoluble
SMILES: C=C(CC(=O)c1ccc(-c2ccc(Cl)cc2)cc1)C(=O)O [F 1449, 2-methylene 4-oxo 4-(4' p-chlorophenylphenyl) butyric acid]
% var. / action (variation of paw volume increase vs controls) (carrageenin edema; 3 hrs): -29%
% var. / action (variation of paw volume increase vs controls) (carrageenin edema; 4 hrs): -24%
% var. / action (variation of paw volume increase vs controls) (carrageenin edema; 6 hrs): -20%
change in vivo at 75 mg/kg (carrageenin edema; [12]): 42%
change in vivo at 75 mg/kg (carrageenin edema; [13]): 45%
change in vivo at 75 mg/kg (carrageenin edema; [14]): 44.5%
change in vivo at 75 mg/kg (carrageenin edema; [9]): -24%
% Decrease (of writhings) [3]: 17%
Mean No. of Writhings [3]: 27,4

Solubility in N-methyl pyrrolidone (Solubility properties): 50%
Solubility in NN-dimethyl acetamide (Solubility properties): 50%
Solubility in ethyl alcohol (Solubility properties): 3%
Solubility in water (Solubility properties; water): insoluble
SMILES: C=C(CC(=O)c1cccc2ccccc12)C(=O)O [F 1494, 2-methylene 4-oxo 4-naphthalene butanoic acid]

Solubility in alcohol of 95° GL (Solubility properties): 6%
Solubility in NN-dimethyl acetamide (Solubility properties): 30%
Solubility in water (Solubility properties; water): insoluble
SMILES: C=C(CC(=O)c1ccc(OC)c(-c2ccccc2)c1)C(=O)O [F 1497, 2-methylene 4-oxo 4-(3' phenyl, 4'-methoxyphenyl) butyric acid]
